Assay results taken from patent EP4603105A1, “PHARMACEUTICAL COMPOSITION CONTAINING CYCLIC COMPOUND HAVING SELECTIVE KRAS INHIBITORY EFFECT AGAINST HRAS AND NRAS” (CHUGAI SEIYAKU KABUSHIKI KAISHA, priority 2022, dated 2024).
*1 amine or outer side, *2 acyl side, *3 side chain or, on linkers, in order; H or OH if unused. Where a SMILES comes first, the peptide text is derived from it. Bridges are numbered along the chain shown (N, C = ends). [ ]: non-standard residue; d: D form. The star is where a group is joined. hPhe(3,5-F2-4-CF3) = N[C@@H](CCc1cc(F)c(C(F)(F)F)c(F)c1)C(=O)O; hPhe(3-Cl-4-CF3) = N[C@@H](CCc1ccc(C(F)(F)F)c(Cl)c1)C(=O)O; NPrPhe(4-CF3) = CCCN[C@@H](Cc1ccc(C(F)(F)F)cc1)C(=O)O; NEtPhe(4-Me) = CCN[C@@H](Cc1ccc(C)cc1)C(=O)O; NMePhe(4-Me) = CN[C@@H](Cc1ccc(C)cc1)C(=O)O; NMeGly(cPent) = CN[C@H](C(=O)O)C1CCCC1; X7 = C[C@@](N[*:1])(C(=O)[*:2])C1CC1; Hyp = O=C(O)[C@@H]1C[C@@H](O)CN1; NMeD = CN[C@@H](CC(=O)O)C(=O)O; NMeL = CN[C@@H](CC(C)C)C(=O)O; Morpholide = C1CN(*)CCO1; NMeA = CN[C@@H](C)C(=O)O; NMeAib = CNC(C)(C)C(=O)O; Nle = CCCC[C@H](N)C(=O)O; Piperidide = C1CCN(*)CC1; Ac5c = NC1(C(=O)O)CCCC1; Aze = O=C(O)[C@@H]1CCN1; Sar = CNCC(=O)O

Legend:
[1] = target: HRAS wild-type protein (Homo sapiens, UniProt P01112); experiment: Binding to HRAS by surface plasmon resonance (SPR), KD and KD ratio to KRAS
Chain of HRAS wild-type protein (P01112 whole entry): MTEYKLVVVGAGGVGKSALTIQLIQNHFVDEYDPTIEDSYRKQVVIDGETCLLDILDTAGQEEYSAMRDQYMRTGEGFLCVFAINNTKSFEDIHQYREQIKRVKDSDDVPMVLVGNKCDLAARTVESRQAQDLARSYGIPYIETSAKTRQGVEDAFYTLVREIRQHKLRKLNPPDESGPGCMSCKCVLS
Outline: (§1)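 GDP-loaded biotinylated Avi-tag RAS proteins (E. coli-expressed) captured on a Biotin CAPture chip at ~100–300 RU; single-cycle kinetics at 30°C, 100 µL/min, 75 s injections of rising compound concentrations. HBS pH 7.4 running buffer with 1 mM DTT, 10 mM MgCl2, 10 µM GDP, 4% DMSO. KD from 1:1 binding fit.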

[2] = tested on: human lung cancer strain NCI-H441; format: cell-based
Outline: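 Readout: […] after the ATP-based reagent. Compound: serial dilutions in dimethyl sulfoxide.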

[3] = target: GDP-bound NRAS wild-type protein (Homo sapiens, UniProt P01111); experiment: Binding to NRAS by surface plasmon resonance (SPR), KD and KD ratio to KRAS
Chain of GDP-bound NRAS wild-type protein (P01111 whole entry): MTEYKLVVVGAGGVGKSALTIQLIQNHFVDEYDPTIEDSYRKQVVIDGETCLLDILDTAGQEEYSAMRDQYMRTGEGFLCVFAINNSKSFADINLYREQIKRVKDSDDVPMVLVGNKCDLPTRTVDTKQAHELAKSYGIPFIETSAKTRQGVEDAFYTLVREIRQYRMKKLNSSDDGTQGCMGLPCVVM
Outline: as §1

[4] = ratio of KD for HRAS wild-type protein to KD for KRAS
[5] = ratio of KD for GDP-bound NRAS wild-type protein to KD for KRAS
[6] = ratio of the KD value with respect to HRAS wild-type protein to the KD value with respect to KRAS
[7] = ratio of the KD value with respect to GDP-bound NRAS wild-type protein to the KD value with respect to KRAS

Compound | HRAS /KRAS [1, 4] | IC50 [2] [µM] | NRAS /KRAS [3, 5] | HRAS /KRAS [1, 6] | NRAS /KRAS [3, 7]
CC[C@H](C)[C@@H]1NC(=O)[C@H](CC(C)C)N(C)C(=O)C[C@@H](C(=O)N2CCOCC2)N(C)C(=O)[C@H](C2CCCC2)N(C)C(=O)C2(CCCC2)NC(=O)[C@@H]2C[C@@H](O)CN2C(=O)[C@H](CCc2ccc(C(F)(F)F)c(Cl)c2)NC(=O)CN(C)C(=O)[C@H](Cc2ccc(C)cc2)N(CC)C(=O)[C@@H]2CCN2C(=O)[C@H](C)N(C)C1=O [PP0013] ([NMeL]I[NMeA][Aze][NEtPhe(4-Me)][Sar][hPhe(3-Cl-4-CF3)][Hyp][Ac5c][NMeGly(cPent)][NMeD]-Morpholide; lactam N-11) | C (A compound having a KD ratio of 0.1 or more and less than 3 is denoted as C) | 0.0098 | C (A compound having a KD ratio of 0.1 or more and less than 3 is denoted as C) |  | 
CCO[C@@H]1C[C@H]2C(=O)NC3(CC(C)(C)C3)C(=O)N(C)[C@@H](CC3CCC3)C(=O)N(C)[C@H](C(=O)N(C)C)CC(=O)N(C)[C@@H](COC)C(=O)N[C@@H]([C@@H](C)CC)C(=O)N(C3CC3)CC(=O)N(C)[C@H]3C/C=C\CCN(C3=O)[C@@H](Cc3ccc(C(F)(F)F)cc3)C(=O)N(C)CC(=O)N[C@@H](CCc3ccc(Cl)c(Cl)c3)C(=O)N2C1 [PP2821] | A (a compound having 10 or more and less than 20 is denoted as A) | 0.0904 | A (a compound having 10 or more and less than 20 is denoted as A) |  | 
CCO[C@@H]1C[C@H]2C(=O)NC3(CCC3)C(=O)N(C)[C@@H](C3CCCC3)C(=O)N(C)[C@H](C(=O)N(C)C)CC(=O)N(C)[C@@H](CC)C(=O)N[C@@H]([C@@H](C)CC)C(=O)N(C)CC(=O)N(C)[C@H]3CCCCN(C3=O)[C@@H](Cc3ccc(C(F)(F)F)cc3)C(=O)N(C)CC(=O)N[C@@H](CCc3ccc(C(F)(F)F)cc3F)C(=O)N2C1 [PP0885] | B (a compound having 3 or more and less than 10 is denoted as B) | 0.0115 | C (A compound having a KD ratio of 0.1 or more and less than 3 is denoted as C) |  | 
CCO[C@@H]1C[C@H]2C(=O)NC3(CCC3)C(=O)N(C)[C@@H](C3CCCC3)C(=O)N(C)[C@H](C(=O)N(C)C)CC(=O)N(C)[C@@H](CC)C(=O)N[C@@H]([C@@H](C)CC)C(=O)N(C)CC(=O)N(C)[C@H]3CCCCN(C3=O)[C@@H](Cc3ccc(C(F)(F)F)cc3)C(=O)N(C)CC(=O)N[C@@H](CCc3ccc4sccc4c3)C(=O)N2C1 [PP0887] | C (A compound having a KD ratio of 0.1 or more and less than 3 is denoted as C) | 0.019 | C (A compound having a KD ratio of 0.1 or more and less than 3 is denoted as C) |  | 
C=CC[C@H]1C(=O)N[C@@H]([C@@H](C)CC)C(=O)N(C)CC(=O)N(C)[C@H]2CCCCN(C2=O)[C@@H](Cc2ccc(C(F)(F)F)cc2)C(=O)N(C)CC(=O)N[C@@H](CCc2cc(F)c(C(F)(F)F)c(F)c2)C(=O)N2C[C@H](OCC)C[C@H]2C(=O)NC2(CCC2)C(=O)N(C)[C@@H](C2CCCC2)C(=O)N(C)[C@H](C(=O)N2CCOCC2)CC(=O)N1C [PP0710] |  | 0.0049 |  | B (a compound having 3 or more and less than 10 is denoted as B) | C (A compound having a KD ratio of 0.1 or more and less than 3 is denoted as C)
CCCN1C(=O)CN(C)C(=O)CN(C)C(=O)[C@H]([C@@H](C)CC)NC(=O)[C@H](CC(C)C)N(C)C(=O)C[C@@H](C(=O)N(C)C)N(C)C(=O)[C@H](C2CCCC2)N(C)C(=O)[C@](C)(C2CC2)NC(=O)[C@@H]2CCCN2C(=O)[C@H](CCc2cc(F)c(C(F)(F)F)c(F)c2)NC(=O)CN(C)C(=O)[C@@H]1Cc1ccc(C(F)(F)F)cc1 [PP0734] ([NMeL]I[Sar][Sar][NPrPhe(4-CF3)][Sar][hPhe(3,5-F2-4-CF3)]P[X7][NMeGly(cPent)][NMeD]-NMe2; lactam N-11) |  | 0.0288 |  | C (A compound having a KD ratio of 0.1 or more and less than 3 is denoted as C) | B (a compound having 3 or more and less than 10 is denoted as B)
CCO[C@@H]1C[C@H]2C(=O)NC3(CC(C)(C)C3)C(=O)N(C)[C@@H](C3CCCC3)C(=O)N(C)[C@H](C(=O)N3CCOCC3)CC(=O)N(C)[C@@H](CC(C)C)C(=O)N[C@@H]([C@@H](C)CC)C(=O)N(C)CC(=O)N(C)[C@H]3CCCCCN(C3=O)[C@@H](Cc3ccc(C(F)(F)F)cc3)C(=O)N(C)CC(=O)N[C@@H](CCc3cc(F)c(C(F)(F)F)c(F)c3)C(=O)N2C1 [PP0726] |  | 0.0327 |  | B (a compound having 3 or more and less than 10 is denoted as B) | B (a compound having 3 or more and less than 10 is denoted as B)
CCCC[C@@H]1NC(=O)[C@H](CCc2ccc(C(F)(F)F)c(Cl)c2)NC(=O)CN(C)C(=O)[C@H](Cc2ccc(C)cc2)N(C)C(=O)CN(C)C(=O)CN(C)C(=O)[C@H]([C@@H](C)CC)NC(=O)[C@H](CC(C)C)N(C)C(=O)C[C@@H](C(=O)N2CCCCC2)N(C)C(=O)[C@H](CC(C)C)NC(=O)C(C)(C)N(C)C1=O [PP0049] ([NMeL]I[Sar][Sar][NMePhe(4-Me)][Sar][hPhe(3-Cl-4-CF3)][Nle][NMeAib]L[NMeD]-Piperidide; lactam N-11) | C (A compound having a KD ratio of 0.1 or more and less than 3 is denoted as C) | 0.201 | C (A compound having a KD ratio of 0.1 or more and less than 3 is denoted as C) |  | 
